The results in this text go back to patent publication US8409649B2, “Off-note blocking sensory organic compounds” (Givaudan S.A., priority 2007, dated 2013).

Structures are written as SMILES. Like-named read-outs stand apart in the source and are kept apart here.

Test [1] concerns the target T1, human TAS2R44 bitter taste receptor (Homo sapiens, UniProt P59538, L162M).
T1 construct: The TAS2R44 construct contains RSS tag, TAS2R44, and the HSV tag which are fused in frame; expressed in transfected cells; host or cells: HEK293T/Galpha16-gustducin44 cells, stably transfected with pcDNA3.1Zeo-TAS2R44
T1 sequence (P59538 with tags, fused parts or gaps L162M): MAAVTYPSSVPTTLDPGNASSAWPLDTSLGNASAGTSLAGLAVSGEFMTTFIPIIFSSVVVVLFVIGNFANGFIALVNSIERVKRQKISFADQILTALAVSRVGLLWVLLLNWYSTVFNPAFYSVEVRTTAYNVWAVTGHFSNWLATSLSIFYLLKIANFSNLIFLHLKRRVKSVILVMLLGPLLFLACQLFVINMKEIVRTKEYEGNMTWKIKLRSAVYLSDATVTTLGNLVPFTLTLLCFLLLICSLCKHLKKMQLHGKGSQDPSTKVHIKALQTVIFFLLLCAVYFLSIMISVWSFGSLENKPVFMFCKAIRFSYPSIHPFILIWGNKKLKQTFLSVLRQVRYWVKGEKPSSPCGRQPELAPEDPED
Nature of the test: TAS2R44 bitter taste receptor assay for IC50 determination (Fluo-4 calcium assay). Type of test: cell-based. The procedure:
A receptor screen with concentration-response analysis was performed and from results inhibitory concentration (IC) IC50 values can be calculated by nonlinear regression using the function f(x)=(a−d)/(1+(x/C)^nh)+d; with a=minimum signal, d=maximum signal, nh=hill coefficient, C=IC50. and x=concentration of antagonist.
IC50 is the molar concentration of an antagonist which produces 50% of the maximum possible inhibitory response for that antagonist.
The full length gene of human TAS2R44 was amplified by polymerase chain reaction (PCR) using gene-specific primers that span the entire coding region as described in WO 2004/029087.
The TAS2R44 cDNA was subcloned into an expression cassette based on either of the following plasmids/expression vectors: pcDNA3.1Zeo (Invitrogen). These vectors contain within their multiple cloning sites the nucleotide sequence coding for the first 45 amino acids of the rat somatostatin receptor subtype 3 (RSS tag) to facilitate cell surface targeting of the transgene (SEQ ID #4) and the nucleotide sequence coding for the herpes simplex virus (HSV) glycoprotein D epitope (HSV epitope in aminoterminal to carboxyterminal direction, HSV tag). (SEQ ID #3) for facilitating immunocytochemical detection.
The TAS2R44 construct contains RSS tag, TAS2R44, and the HSV tag which are fused in frame to allow translation into the receptor protein and the resulting receptor cDNA. This transfected expression vector is called pcDNA3.1Zeo-TAS2R44 (SEQ ID #1) and allows for expression of the TAS2R44 protein (SEQ ID #2).
A cell line that stably expresses the human bitter taste receptor (TAS2R44) was generated by transfecting pcDNA3.1Zeo-TAS2R44 into HEK293T/Gα16-gustducin 44 cells (both formed as described in under 1) above. The host cell line HEK-293T is commercially available from the American […] (catalog #CRL-1573).
Fluo-4 AM (Invitrogen) is a fluorescent indicator of intracellular calcium dynamics (change in concentration) and allows monitoring changes in the calcium concentration, particularly an increase in response to receptor activation occurring after agonist exposure.
At day 0, the HEK293T cell line stably expressing Gα16-gustducin44 and TAS2R44 formed as described under 2) was seeded in antibiotic-free growth medium (standard DMEM with 10% (v/v) heat-inactivated fetal bovine serum, 2 mM L-glutamine […]) into black wall/clear bottom 96-well plates, coated with poly(ethylenimine) (0.005% v/v) at a concentration of 15,000 cells per well and incubated for 48 hours in humidified atmosphere (37° C., 5% CO2).
At the time of the assay, the growth medium was discarded and the cells were further incubated in a humidified atmosphere (37° C., 5% CO2) for 1 hour with 50 μl of loading buffer consisting of 1.5 μM Fluo-4 AM and 2.5 μM probenicid (Sigma-Aldrich) in DMEM.
Afterwards, the 96-well plate was washed 5 times with 200 μl of assay buffer (130 mM NaCl, 5 mM KCl, 10 mM HEPES, 2 mM CaCl2, and 5 mM dextrose, pH 7.4) per well, using an automated plate washer (BioTek). The plate was further incubated for 30 minutes at room temperature in the dark to allow for complete de-esterification of the Fluo-4. Afterwards the plate was washed 5 times with 200 μl of assay buffer per well, and reconstituted with 180 μl of assay buffer per well.
For assay reading, the plate was placed in a Fluorometric Imaging Plate Reader (FLIPR) (FLIPR-TETRA™, Molecular Devices), and receptor activation was initiated by addition of 20 μl of a tenfold concentrated agonist stock solution (to give the desired agonist end concentration when added to the 180 microliter assay buffer volume), which was prepared in assay buffer.
Fluorescence was continuously monitored for 20 seconds to give a signal baseline (averaged to give F0) prior to agonist addition and for 120 seconds after agonist addition. […]

The test system of test [2] is panel of bitter sensitive individuals. As to the kind of experiment: Sensory evaluation, forced choice test in water with sucralose. Type of test: in vivo. To be noted: 13 ppm in water with sucralose 1 mM, 3 mM, 7 mM. How it is done: The bitter blocker (13 ppm) was tested in water with sucralose in concentrations of 1 mM, 3 mM, and 7 mM by a panel of bitter sensitive individuals (15) in two replications per each concentration. The samples were compared to negative controls without bitter blocker and panelists were instructed to choose the less bitter sample in a forced choice test.

The mark [3] stands for this setting: agonist not stated, read-out: IC50 when tested with the TAS2R44 bitter taste receptor.

For the compound `CC1(C(=O)O)CC1CC1CC2CC2(C)C1(C)C` (stereo not shown) [1-methyl-2-((1,2,2-trimethylbicyclo[3.1.0]hexan-3-yl)methyl)cyclopropanecarboxylic acid], the IC50 in test [1] (setting [3]) lay within 0.1 to 20 µM.

With `CC1CCC(CC(=O)O)CC1C` (stereo not shown) [2-(3,4-dimethylcyclohexyl)acetic acid], in test [1] (setting [3]), the IC50 lay within 0.1 to 20 µM.

For the compound `CC1=CCCC(C)(C)C1CCC(C)C(=O)O` (stereo not shown) [2-methyl-4-(2,6,6-trimethylcyclohex-2-enyl)butanoic acid], the IC50 in test [1] (setting [3]) was in the range of 0.1 to 20 µM.

For `CC1CCCC(C)(C)C1CCC(=O)O` (stereo not shown) [3-(2,2,6-trimethylcyclohexyl)propanoic acid], the IC50 in test [1] (setting [3]) was in the range of 0.1 to 20 µM.

Consider `CC1=CCC(C/C=C/C(=O)O)C1(C)C` (stereo not shown) [4-(2,2,3-trimethylcyclopent-3-enyl)but-2-enoic acid], for which the IC50 was 0.1 to 20 µM in test [1] (setting [3]) and “within the same range” in test [1] (sucralose (50 mM) as agonist, same range as example 4). For the same compound, the “effect on bitterness vs negative control without bitter blocker” value in test [2] was “significantly reduce bitterness”. The “panelists that chose the sample with bitter blocker as less bitter” value in test [2] (forced choice, 15 individuals, two replications) is given as 22/30.

Regarding `CC1CCC(CCCC(=O)O)C1(C)C` (stereo not shown) [4-(2,2,3-trimethylcyclopentyl)butanoic acid], the 50% inhibitory concentration (IC50) in test [1] (setting [3]) was 0.1 to 20 µM.

As for `CC1CCCC(C)(C)C1CCCC(=O)O` (stereo not shown) [4-(2,2,6-trimethylcyclohexyl)butanoic acid], the IC50 in test [1] (setting [3]) was in the range of 0.1 to 20 µM.
